Experimental data reported in PMC10119282, “Molecular characterization of AIFM2/FSP1 inhibition by iFSP1-like molecules” (Cell Death & Disease, 2023).

What was measured:
hFSP1 WT = target: T1, hFSP1 WT (Homo sapiens, UniProt Q9BRQ8); assay: Competition MST against pre-formed complex of hFSP1 WT and FSP1-Tracer; format: binding
T1 construct: HisSUMO (cleaved yes); made in house; host or cells: E. coli BL21
T1 sequence (Q9BRQ8 1-373): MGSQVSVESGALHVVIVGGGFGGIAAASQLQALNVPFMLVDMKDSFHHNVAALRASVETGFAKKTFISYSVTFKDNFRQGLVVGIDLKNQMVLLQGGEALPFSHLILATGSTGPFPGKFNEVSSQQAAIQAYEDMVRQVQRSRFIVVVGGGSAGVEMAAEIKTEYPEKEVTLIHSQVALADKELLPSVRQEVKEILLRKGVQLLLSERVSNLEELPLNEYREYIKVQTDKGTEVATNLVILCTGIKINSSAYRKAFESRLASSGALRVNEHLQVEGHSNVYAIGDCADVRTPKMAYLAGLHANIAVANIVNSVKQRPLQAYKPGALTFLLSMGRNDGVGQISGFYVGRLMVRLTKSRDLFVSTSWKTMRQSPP
Protocol: (§1) FSP1 (human isoform 1, UniProt Q9BRQ8-1) WT (hFSP1 WT) and F360L (hFSP1 F360L) were expressed in E.coli BL21 as HisSUMO fusion protein. Cells were grown in lysogeny broth medium at 18 °C and induced with 0.5 mM isopropyl-β-thiogalactoside at a cell density A600 of 0.6. Cells were collected after overnight expression by centrifugation, resuspended in lysis buffer ([…], 50 mM Tris-HCl pH 8, 1 mM TCEP, 20 mM imidazole, protease inhibitor, DNase) and lysed by sonication. Cell debris was removed by centrifugation (30,000 × g) at 4 °C for 30 min, after which an IMAC purification was performed. Briefly, a HisTrap crude FF (5 mL) column was equilibrated to lysis buffer, lysates were loaded via the sample pump and the column was then washed with 50 mL lysis buffer. During the elution with a gradient to 100% IMAC elution buffer (300 mM NaCl, 50 mM Tris-HCl pH 8, 1 mM TCEP, 400 mM imidazole) over 100 mL, 5 mL fractions were collected. The pooled fractions were dialysed overnight in the presence of SenP2 SUMO protease at a ratio of 40:1 FSP1:SenP2. Afterwards, a reverse IMAC purification was performed on a HisTrap crude FF (5 mL) column. IMAC eluates were analysed by SDS PAGE and concentrated to 15 mL (hFSP1 WT) and 5 mL (hFSP1 F360L), respectively. […] Pure fractions were pooled (C12—D11 for hFSP1 WT and C7—D4 for hFSP1 F360L), analysed by SDS-PAGE (Supplementary Fig. 4) and concentrated to 5.8 mL at 285.9 µM (hFSP1 WT) and 1.2 mL at 269.5 µM (FSP1 F360L), flash frozen in liquid N2 and stored at −80 °C.
An MST buffer consisting of 1× phosphate-buffered saline (PBS; 137 mM NaCl, 2.7 mM KCl, 10 mM Na2HPO4, 1.8 mM KH2PO4, pH 7.4) with 2 mM reduced L-Glutathione (GSH, Sigma Aldrich, product number G4251) and 0.05% (v/v) Tween 20 (ITW Reagents, molecular biology grade, product number A4974) was used for all MST measurements. […] KD values were determined by applying a Hill-fit to a plot of Fnorm vs. hFSP1 WT/F360L concentration. […]

[1] = target: T2, recombinant purified hFSP1 F360L mutant (Homo sapiens, UniProt Q9BRQ8, F360L); assay: NADH consumption assay (340 nm), FSP1 enzyme activity and inhibition; format: biochemical; conditions: iFSP1 2 µM; menadione as substrate
T2 construct: HisSUMO (cleaved yes); made in house; host or cells: E. coli BL21
Protocol: as §1, with “Briefly, a HisTrap crude FF (5 mL) column was equilibrated to lysis buffer, lysates were loaded via the sample pump and the column was then washed with 50 mL lysis buffer. During the elution with a gradient to 100% IMAC elution buffer (300 mM NaCl, 50 mM Tris-HCl pH 8, 1 mM TCEP, 400 mM imidazole) over 100 mL, 5 mL fractions were collected. The pooled fractions were dialysed overnight in the presence of SenP2 SUMO protease at a ratio of 40:1 FSP1:SenP2. Afterwards, a reverse IMAC purification was performed on a HisTrap crude FF (5 mL) column.” left out
(§2) Enzyme reactions were performed in TBS buffer (50 mM TRIS pH 8, 250 mM NaCl) on a 96-well plate in a 100 µL final volume. […] Absorbance (340 nm) was recorded every 30 s on a Spark® microplate reader (Tecan, Zürich, Switzerland) in order to determine NADH consumption. […]

[2] = target: T3, recombinant purified hFSP1 WT (Homo sapiens, UniProt Q9BRQ8); assay: as above; format: biochemical; conditions: iFSP1 2 µM; menadione as substrate
T3 construct: HisSUMO (cleaved yes); made in house; host or cells: E. coli BL21
Protocol: as §1, with “Briefly, a HisTrap crude FF (5 mL) column was equilibrated to lysis buffer, lysates were loaded via the sample pump and the column was then washed with 50 mL lysis buffer. During the elution with a gradient to 100% IMAC elution buffer (300 mM NaCl, 50 mM Tris-HCl pH 8, 1 mM TCEP, 400 mM imidazole) over 100 mL, 5 mL fractions were collected. The pooled fractions were dialysed overnight in the presence of SenP2 SUMO protease at a ratio of 40:1 FSP1:SenP2. Afterwards, a reverse IMAC purification was performed on a HisTrap crude FF (5 mL) column.” left out
as §2

T2 sequence (Q9BRQ8 whole entry F360L): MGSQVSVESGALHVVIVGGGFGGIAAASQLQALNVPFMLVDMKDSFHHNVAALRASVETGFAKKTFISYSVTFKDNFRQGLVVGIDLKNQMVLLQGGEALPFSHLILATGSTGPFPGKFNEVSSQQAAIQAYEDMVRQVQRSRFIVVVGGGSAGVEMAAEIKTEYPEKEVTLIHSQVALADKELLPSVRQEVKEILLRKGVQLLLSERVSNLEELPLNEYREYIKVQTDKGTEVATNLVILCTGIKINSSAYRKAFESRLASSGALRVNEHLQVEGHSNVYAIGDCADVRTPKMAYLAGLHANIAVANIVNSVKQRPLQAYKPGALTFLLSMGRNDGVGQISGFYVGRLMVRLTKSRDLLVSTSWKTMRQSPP

## Cc1ccc(-c2c(C#N)c(N)n3c(nc4ccccc43)c2C#N)cc1 [iFSP1]
hFSP1 WT; hFSP1 WT 5 µM and FSP1-Tracer 5 nM pre-formed complex
  Ki: 61.6 nM
hFSP1 WT; iFSP1 Ki versus NADH Ki
  higher binding affinity to hFSP1 than NADH: 7.4 fold
[1]
  inhibition of enzyme activity (NADH consumption): just the activity of the WT protein was inhibited by iFSP1
[2]
  inhibition of enzyme activity (NADH consumption): inhibited
